The values below are quoted from earlier work in patent publication US9168282B2, “Method for treating neuronal damage and neurological diseases” (priority 2009, dated 2015).

In data set [1] the test system is herpes zoster patients. As to conditions: 500 mg of Famciclovir three times per day, 7 days, meta-analysis data (Can Fam Physician 2008).
Data set [2] concerns herpes zoster patients. The settings on record: Famciclovir 500 mg three times per day, 7 days, meta-analysis data (Can Fam Physician 2008).

For the compound `CC(=O)OCC(CCn1cnc2cnc(N)nc21)COC(C)=O` [Famciclovir], the “Median of time required for generating scab over the whole skin lesion” value in data set [1] is 5 days. For the same compound, in data set [2], the “Median of time required for relieving pain” value was 20 days.
